{"source": "paper PMC5814162", "about": "“Anticoagulants inhibit proteolytic clearance of plasma amyloid beta” (Oncotarget, 2017)", "key": {"[1]": {"tested_on": "plasma Aβ42 (FXII-FVII pathway)", "test": "Plasma Aβ42 level in mice given synthetic Aβ42 after anticoagulant treatment (ELISA)", "format": "in vivo", "conditions": "male C57BL/6 mice, anticoagulant once daily for 5 days (EP 0.1 and 0.5 mg/kg i.p.; DGT 22.5 and 45 mg/kg p.o.), Aβ42 40 μg/kg i.p. 1 h after final dose, blood 6 h later, vs vehicle, mean of n = 3, 'up to' over the two doses", "experimental": "All experiments were approved by the Institutional Animal Care and Use Committee at the Roswell Park Cancer Institute under protocol 1022M. All mice were housed in individually ventilated pathogen-free cage systems equipped with HEPA filtered air supply and reverse osmosis purified water in a centralized vivarium facility. The facility is controlled with fully automated sensors for light (12-hour dark - 12-hour light cycle), temperature (70°F ± 2°F), humidity and airflow. All mice had free access to standard rodent diet (sterilizable Teklad #2018, with 6% fat and alfalfa free). C57BL/6NTac mice (male) were purchased from Taconic and used in two experiments. In the first experiment, mice at 8-9 weeks of age were treated with vehicle or an anticoagulant once daily for 5 days, and 1 h after the final treatment, the mice were treated with a single dose of Aβ42, followed by blood draw 6 h later. Blood was collected from the mice by cardiac puncture at the time of sacrifice by carbon dioxide and was collected into K3 EDTA-containing tubes (Multivette 600 from Sarstedt), from which plasma samples were prepared. […] Plasma concentrations of Aβ were determined by ELISA, which either detects both Aβ40 and Aβ42 [53] or specifically measures each peptide. […] Plasma concentration of FI was also measured by ELISA using a kit from GenWay Biotech. […]"}, "[2]": {"tested_on": "FXII-FVII pathway", "test": "FXII-FVII pathway activation in J20 mice and WT littermates, effect of EP (Western blotting, FI by ELISA)", "format": "in vivo", "conditions": "EP 0.5 mg/kg i.p. once daily 5 days; for effect of EP on coagulation factor activation in J20 mice: blood 6 h after final treatment; for effect of EP on plasma FI level in WT littermates: ELISA", "experimental": "(§1) J20 mice were purchased from the Mutant Mouse Resource & Research Centers (MMRRC) via the Jackson Laboratory. Hemizygous male J20 mice in C57BL/6J background were bred with WT female mice (C57BL/6J, also from Jackson Laboratory). F1 hemizygous J20 mice were identified by PCR genotyping based on the Jackson Laboratory protocol (https://www/jax.org/strain/006293) and used for experiments. J20 mice and their WT littermates (at the age of 1, 3 and 6 months, male and female) were treated with EP or vehicle i.p. once daily for 5 days, and at 6 h after the last treatment, blood was drawn from the mice.\n(§2) Plasma concentrations of Aβ were determined by ELISA, which either detects both Aβ40 and Aβ42 [53] or specifically measures each peptide. In the latter case, ELISA kits from Invitrogen (KHB3481 and KHB3441) were used. Plasma concentration of FI was also measured by ELISA using a kit from GenWay Biotech. The commercial kits were used by following the manufacturers’ instructions.\n(§3) Each plasma sample (7.5 μl of plasma per sample) was mixed with 4x loading dye, heated at 95°C for 5 min, and resolved by SDS-PAGE. The separated proteins were transferred to polyvinylidene fluoride membrane, probed with specific antibodies, and detected using Luminata Classico or Luminata Cresendo (Millipore)."}, "[3]": {"tested_on": "plasma Aβ40", "test": "Plasma Aβ40 level in J20 mice and WT littermates, ELISA specific for Aβ40", "format": "in vivo", "conditions": "3 months of age, EP 0.5 mg/kg i.p. once daily 5 days", "experimental": "as §1, §2"}, "[4]": {"tested_on": "FXII-FVII pathway", "test": "Plasma coagulation factor activation in mice treated with EP and/or Aβ40 (Western blotting, FI by ELISA)", "format": "in vivo", "conditions": "male C57BL/6 mice; EP 0.5 mg/kg i.p. once daily 5 days, then Aβ40 40 μg/kg i.p.; blood 6 h later", "experimental": "All experiments were approved by the Institutional Animal Care and Use Committee at the Roswell Park Cancer Institute under protocol 1022M. All mice were housed in individually ventilated pathogen-free cage systems equipped with HEPA filtered air supply and reverse osmosis purified water in a centralized vivarium facility. The facility is controlled with fully automated sensors for light (12-hour dark – 12-hour light cycle), temperature (70°F ± 2°F), humidity and airflow. All mice had free access to standard rodent diet (sterilizable Teklad #2018, with 6% fat and alfalfa free). C57BL/6NTac mice (male) were purchased from Taconic and used in two experiments. […]\n(§4) Plasma concentrations of Aβ were determined by ELISA, which either detects both Aβ40 and Aβ42 [53] or specifically measures each peptide. […] Plasma concentration of FI was also measured by ELISA using a kit from GenWay Biotech. […]\nas §3"}, "[5]": {"tested_on": "plasma Aβ40 / endogenous Aβ (FXII-FVII pathway)", "test": "Plasma Aβ level in mice treated with EP and/or Aβ40 (ELISA)", "format": "in vivo", "conditions": "male C57BL/6 mice, EP 0.5 mg/kg i.p. once daily 5 days, n = 3", "experimental": "All experiments were approved by the Institutional Animal Care and Use Committee at the Roswell Park Cancer Institute under protocol 1022M. All mice were housed in individually ventilated pathogen-free cage systems equipped with HEPA filtered air supply and reverse osmosis purified water in a centralized vivarium facility. The facility is controlled with fully automated sensors for light (12-hour dark – 12-hour light cycle), temperature (70°F ± 2°F), humidity and airflow. All mice had free access to standard rodent diet (sterilizable Teklad #2018, with 6% fat and alfalfa free). C57BL/6NTac mice (male) were purchased from Taconic and used in two experiments. In the first experiment, mice at 8–9 weeks of age were treated with vehicle or an anticoagulant once daily for 5 days, and 1 h after the final treatment, the mice were treated with a single dose of Aβ42, followed by blood draw 6 h later. Blood was collected from the mice by cardiac puncture at the time of sacrifice by carbon dioxide and was collected into K3 EDTA-containing tubes (Multivette 600 from Sarstedt), from which plasma samples were prepared. […]\nas §4"}, "[6]": {"tested_on": "brain amyloid plaque load", "conditions": "Tg2576 mice; chronic treatment with EP at the same dose regimen (∼2.5 mg/kg, i.p., 3 times weekly); cited from earlier work", "excerpt": "(§5) By inhibiting the FXII-FVII pathway, anticoagulants present an interesting dichotomy in impacting AD: Inhibiting procoagulant activity, potentially slowing or ameliorating AD, but also inhibiting plasma Aβ degradation, potentially contributing to brain Aβ accumulation. Indeed, increased coagulation is implicated in AD [42], but there is also evidence that peripheral Aβ moves to the brain [43]. The exact effect of anticoagulants on AD remains unclear. Treatment of AD mice (APP23 mice) with EP (∼2.5 mg/kg, i.p., 3 times weekly) for 6 months reduced brain astrocyte activation and Aβ accumulat ..."}, "[7]": {"tested_on": "brain astrocyte activation and Aβ accumulation", "conditions": "APP23 mice; EP ∼2.5 mg/kg, i.p., 3 times weekly for 6 months; cited from earlier work", "excerpt": "as §5"}, "[8]": {"tested_on": "plasma Aβ", "test": "Plasma Aβ level in J20 mice and WT littermates, ELISA measuring both Aβ40 and Aβ42", "format": "in vivo", "conditions": "EP 0.5 mg/kg i.p. once daily 5 days", "experimental": "as §1, §2"}, "[9]": {"tested_on": "plasma Aβ42", "test": "Plasma Aβ42 level in J20 mice and WT littermates, ELISA specific for Aβ42", "format": "in vivo", "conditions": "3 months of age, EP 0.5 mg/kg i.p. once daily 5 days", "experimental": "as §1, §2"}}, "data": [{"molecule": "[H]/N=C(/N)c1ccc(NCc2nc3cc(C(=O)N(CCC(=O)O)c4ccccn4)ccc3n2C)cc1", "note": "[DGT, dabigatran]", "values": [{"measurement": "increase in plasma level of Aβ42", "setting": "[1]", "result": "up to 21.3 fold"}]}, {"molecule": "enoxaparin [EP]", "values": [{"measurement": "effect of EP on coagulation factor activation in J20 mice", "setting": "[2]; 1 month of age, male and female", "result": "greatly attenuated the activation of FX, FII, FVII and FI"}, {"measurement": "effect of EP on coagulation factor activation in J20 mice", "setting": "[2]; 3 and 6 months of age", "result": "strongly inhibited the activation of FX, FII, FVII and FI"}, {"measurement": "effect of EP on plasma FI level in WT littermates", "setting": "[2]; 1 month of age", "result": "only slightly elevated FI level"}, {"measurement": "effect of EP on plasma FI level in WT littermates", "setting": "[2]; 3 and 6 months of age", "result": "slightly elevate FI level"}, {"measurement": "ratio of EP-induced increase in plasma Aβ level in J20 mice over that in the WT littermates", "setting": "[3]; Aβ40, female", "result": 40.1}, {"measurement": "ratio of EP-induced increase in plasma Aβ level in J20 mice over that in the WT littermates", "setting": "[3]; Aβ40, male", "result": 45.7}, {"measurement": "increase in plasma level of Aβ40 after EP treatment", "setting": "[3]; J20 mice, female", "result": 4.3, "unit": "fold"}, {"measurement": "increase in plasma level of Aβ40 after EP treatment", "setting": "[3]; J20 mice, male", "result": 3.6, "unit": "fold"}, {"measurement": "increase in plasma level of Aβ40 after EP treatment", "setting": "[3]; WT littermates, female", "result": 1.9, "unit": "fold"}, {"measurement": "increase in plasma level of Aβ40 after EP treatment", "setting": "[3]; WT littermates, male", "result": 1.6, "unit": "fold"}, {"measurement": "effect of EP on Aβ40-induced activation of coagulation factors", "setting": "[4]", "result": "prevents the activation of FX, FII, FVII and FI"}, {"measurement": "increase in plasma level of exogenously administered Aβ40", "setting": "[5]; Aβ40 40 μg/kg i.p. 1 h after last dose, blood 6 h later", "result": 77.4, "unit": "fold"}, {"measurement": "elevation of plasma level of endogenous Aβ", "setting": "[5]; no Aβ40 injected", "result": 1.7, "unit": "fold"}, {"measurement": "effect on brain amyloid plaque load", "setting": "[6]", "result": "significantly increased brain amyloid plaque load"}, {"measurement": "effect on brain astrocyte activation and Aβ accumulation", "setting": "[7]", "result": "reduced brain astrocyte activation and Aβ accumulation"}, {"measurement": "ratio of EP-induced increase in plasma Aβ level in J20 mice over that in the WT littermates", "setting": "[8]; 1 month of age, female", "result": 8.7}, {"measurement": "ratio of EP-induced increase in plasma Aβ level in J20 mice over that in the WT littermates", "setting": "[8]; 1 month of age, male", "result": 9.3}, {"measurement": "ratio of EP-induced increase in plasma Aβ level in J20 mice over that in the WT littermates", "setting": "[8]; 3 months of age, female", "result": 56.9}, {"measurement": "ratio of EP-induced increase in plasma Aβ level in J20 mice over that in the WT littermates", "setting": "[8]; 3 months of age, male", "result": 47.5}, {"measurement": "ratio of EP-induced increase in plasma Aβ level in J20 mice over that in the WT littermates", "setting": "[8]; 6 months of age, female", "result": 51.2}, {"measurement": "ratio of EP-induced increase in plasma Aβ level in J20 mice over that in the WT littermates", "setting": "[8]; 6 months of age, male", "result": 40.4}, {"measurement": "increase in plasma Aβ concentration after EP treatment", "setting": "[8]; J20 mice, 1 month of age, male or female, n = 3", "result": 2.3, "unit": "fold"}, {"measurement": "increase in plasma Aβ level after EP treatment", "setting": "[8]; J20 mice, 3 months of age, female, n = 3", "result": 4.2, "unit": "fold"}, {"measurement": "increase in plasma Aβ level after EP treatment", "setting": "[8]; J20 mice, 3 months of age, male, n = 3", "result": 3.7, "unit": "fold"}, {"measurement": "increase in plasma Aβ level after EP treatment", "setting": "[8]; J20 mice, 6 months of age, female, n = 3", "result": 3.6, "unit": "fold"}, {"measurement": "increase in plasma Aβ level after EP treatment", "setting": "[8]; J20 mice, 6 months of age, male, n = 3", "result": 3.4, "unit": "fold"}, {"measurement": "elevation of plasma Aβ concentration", "setting": "[8]; WT littermates, regardless of age or gender, blood 6 h after final treatment, n = 3", "result": "approximately 1.6 fold"}, {"measurement": "increase in plasma level of Aβ42", "setting": "[1]", "result": "up to 73.3 fold"}, {"measurement": "ratio of EP-induced increase in plasma Aβ level in J20 mice over that in the WT littermates", "setting": "[9]; Aβ42, female", "result": 63.6}, {"measurement": "ratio of EP-induced increase in plasma Aβ level in J20 mice over that in the WT littermates", "setting": "[9]; Aβ42, male", "result": 47.3}, {"measurement": "increase in plasma level of Aβ42 after EP treatment", "setting": "[9]; J20 mice, female", "result": 4.7, "unit": "fold"}, {"measurement": "increase in plasma level of Aβ42 after EP treatment", "setting": "[9]; J20 mice, male", "result": 4.3, "unit": "fold"}, {"measurement": "increase in plasma level of Aβ42 after EP treatment", "setting": "[9]; WT littermates, female", "result": 1.6, "unit": "fold"}, {"measurement": "increase in plasma level of Aβ42 after EP treatment", "setting": "[9]; WT littermates, male", "result": 1.7, "unit": "fold"}]}]}
